± gives the expanded uncertainty stated by the source.
Legend:
[1] = Liquid, Ebulliometric method (Recirculating still)
[2] = refractive index (Na D-line) (dimensionless); conditions: 298.15 K; 101.33 kPa; Liquid; Standard Abbe refractometry

Row | SMILES | vapor or sublimation pressure ([1]; 375.14 K) | refractive index [2] | vapor or sublimation pressure ([1]; 355.5 K) | vapor or sublimation pressure ([1]; 337.68 K)
1 | CCC(C)(C)O [2-methylbutan-2-ol] | 101.3 ± 0.6 kPa | 1.4018 ± 0.0007 | – | –
2 | CC(C)O [propan-2-ol] | – | 1.375 ± 0.0007 | 101.3 ± 0.6 kPa | –
3 | CO [methanol] | – | 1.3261 ± 0.0007 | – | 101.3 ± 0.6 kPa

Source: the NIST ThermoML archive (doi:10.1021/je060476j)
